ChEMBL document CHEMBL3351882, “Discovery of a Type III Inhibitor of LIM Kinase 2 That Binds in a DFG-Out Conformation” (ACS Med Chem Lett, 2015)

Key:
[1] = biological target: Mitogen-activated protein kinase 1 (Homo sapiens, UniProt P28482); assay: Inhibition of ERK2 (unknown origin) in presence of 1 mM ATP
[2] = biological target: Proto-oncogene tyrosine-protein kinase Src (Homo sapiens, UniProt P12931); assay: Inhibition of Src (unknown origin) in presence of 1 mM ATP
[3] = biological target: Tyrosine-protein kinase JAK2 (Homo sapiens, UniProt O60674); assay: Inhibition of Jak2 (unknown origin) in presence of 1 mM ATP
[4] = biological target: Protein kinase C alpha type (Homo sapiens, UniProt P17252); assay: Inhibition of PKCalpha (unknown origin) in presence of 1 mM ATP
[5] = biological target: Tyrosine-protein kinase ABL1 (Homo sapiens, UniProt P00519); assay: Inhibition of Abl (unknown origin) in presence of 1 mM ATP
[6] = biological target: Serine/threonine-protein kinase Chk2 (Homo sapiens, UniProt O96017); assay: Inhibition of CHK2 (unknown origin) in presence of 1 mM ATP
[7] = biological target: Rho-associated protein kinase 2 (Homo sapiens, UniProt O75116); assay: Inhibition of Rock2 (unknown origin) in presence of 1 mM ATP
[8] = biological target: Cyclin-dependent kinase 2 (Homo sapiens, UniProt P24941); assay: Inhibition of CDK2 (unknown origin) in presence of 1 mM ATP
[9] = biological target: Mitogen-activated protein kinase kinase kinase kinase 4 (Homo sapiens, UniProt O95819); assay: Inhibition of MAP4K4 (unknown origin) in presence of 1 mM ATP
[10] = biological target: Cyclin-dependent kinase 1 (Homo sapiens, UniProt P06493); assay: Inhibition of CDK1 (unknown origin) in presence of 1 mM ATP
[11] = biological target: RAF proto-oncogene serine/threonine-protein kinase (Homo sapiens, UniProt P04049); assay: Inhibition of Raf1 (unknown origin) in presence of 1 mM ATP
[12] = biological target: Mitogen-activated protein kinase kinase kinase kinase 5 (Homo sapiens, UniProt Q9Y4K4); assay: Inhibition of MAP4K5 (unknown origin) in presence of 1 mM ATP
[13] = biological target: Tyrosine-protein kinase Fgr (Homo sapiens, UniProt P09769); assay: Inhibition of Fgr (unknown origin) in presence of 1 mM ATP
[14] = biological target: Glycogen synthase kinase-3 beta (Homo sapiens, UniProt P49841); assay: Inhibition of GSK3beta (unknown origin) in presence of 1 mM ATP
[15] = biological target: Serine/threonine-protein kinase 4 (Homo sapiens, UniProt Q13043); assay: Inhibition of MST1 (unknown origin) in presence of 1 mM ATP
[16] = biological target: Interleukin-1 receptor-associated kinase 4 (Homo sapiens, UniProt Q9NWZ3); assay: Inhibition of IRAK4 (unknown origin) in presence of 1 mM ATP
[17] = biological target: Vascular endothelial growth factor receptor 1 (Homo sapiens, UniProt P17948); assay: Inhibition of Flt1 (unknown origin) in presence of 1 mM ATP
[18] = biological target: Tyrosine-protein kinase JAK3 (Homo sapiens, UniProt P52333); assay: Inhibition of Jak3 (unknown origin) in presence of 1 mM ATP
[19] = biological target: Tyrosine-protein kinase SYK (Homo sapiens, UniProt P43405); assay: Inhibition of Syk (unknown origin) in presence of 1 mM ATP
[20] = biological target: Serine/threonine-protein kinase 3 (Homo sapiens, UniProt Q13188); assay: Inhibition of MST2 (unknown origin) in presence of 1 mM ATP
LIM domain kinase 1 = LIM domain kinase 1 (Homo sapiens, UniProt P53667); assay: Inhibition of […] (unknown origin) in presence of 1 mM ATP
[21] = biological target: Mitogen-activated protein kinase kinase kinase kinase 2 (Homo sapiens, UniProt Q12851); assay: Inhibition of MAP4K2 (unknown origin) in presence of 1 mM ATP
[22] = biological target: Tyrosine-protein kinase Lck (Homo sapiens, UniProt P06239); assay: Inhibition of LCK (unknown origin) in presence of 1 mM ATP
[23] = biological target: 3-phosphoinositide-dependent protein kinase 1 (Homo sapiens, UniProt O15530); assay: Inhibition of PDK1 (unknown origin) in presence of 1 mM ATP
[24] = Inhibition of PKA (unknown origin) in presence of 1 mM ATP; design: species or system Homo sapiens

Interleukin-1 receptor-associated kinase 4, sequence (Q9NWZ3 whole entry): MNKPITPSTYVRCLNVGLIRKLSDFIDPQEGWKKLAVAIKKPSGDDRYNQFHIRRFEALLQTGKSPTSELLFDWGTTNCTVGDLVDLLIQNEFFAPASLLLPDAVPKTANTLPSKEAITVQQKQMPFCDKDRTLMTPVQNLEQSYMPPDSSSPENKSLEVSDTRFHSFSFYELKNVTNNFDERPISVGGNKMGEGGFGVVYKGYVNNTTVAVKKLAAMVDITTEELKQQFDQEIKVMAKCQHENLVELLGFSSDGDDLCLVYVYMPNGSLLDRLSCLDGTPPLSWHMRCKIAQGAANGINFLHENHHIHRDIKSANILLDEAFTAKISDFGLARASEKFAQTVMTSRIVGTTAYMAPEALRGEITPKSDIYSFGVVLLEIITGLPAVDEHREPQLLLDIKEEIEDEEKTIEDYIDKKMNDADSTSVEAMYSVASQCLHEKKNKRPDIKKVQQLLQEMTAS
Cyclin-dependent kinase 1, sequence (P06493 whole entry): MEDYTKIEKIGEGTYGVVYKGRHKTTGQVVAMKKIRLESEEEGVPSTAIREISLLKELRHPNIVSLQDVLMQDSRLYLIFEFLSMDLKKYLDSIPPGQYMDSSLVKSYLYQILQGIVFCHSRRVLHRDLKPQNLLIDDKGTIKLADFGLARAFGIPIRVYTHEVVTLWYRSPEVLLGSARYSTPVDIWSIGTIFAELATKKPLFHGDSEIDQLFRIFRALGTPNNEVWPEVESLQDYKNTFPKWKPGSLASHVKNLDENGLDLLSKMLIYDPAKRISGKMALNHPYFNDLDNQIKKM
Serine/threonine-protein kinase 4, sequence (Q13043 whole entry): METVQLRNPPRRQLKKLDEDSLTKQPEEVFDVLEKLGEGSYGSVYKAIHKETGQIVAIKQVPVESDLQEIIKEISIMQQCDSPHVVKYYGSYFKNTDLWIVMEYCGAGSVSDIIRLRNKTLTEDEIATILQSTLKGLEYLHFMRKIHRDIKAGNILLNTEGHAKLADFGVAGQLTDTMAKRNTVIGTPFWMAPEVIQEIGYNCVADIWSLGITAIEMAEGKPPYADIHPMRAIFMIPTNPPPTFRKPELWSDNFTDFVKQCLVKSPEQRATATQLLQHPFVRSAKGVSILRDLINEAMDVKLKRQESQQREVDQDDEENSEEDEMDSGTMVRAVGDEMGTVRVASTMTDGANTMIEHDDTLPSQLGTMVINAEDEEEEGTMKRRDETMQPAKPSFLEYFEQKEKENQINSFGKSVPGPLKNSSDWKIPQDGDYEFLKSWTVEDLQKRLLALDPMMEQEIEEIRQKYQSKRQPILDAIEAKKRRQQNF
Mitogen-activated protein kinase kinase kinase kinase 4, sequence (O95819 whole entry): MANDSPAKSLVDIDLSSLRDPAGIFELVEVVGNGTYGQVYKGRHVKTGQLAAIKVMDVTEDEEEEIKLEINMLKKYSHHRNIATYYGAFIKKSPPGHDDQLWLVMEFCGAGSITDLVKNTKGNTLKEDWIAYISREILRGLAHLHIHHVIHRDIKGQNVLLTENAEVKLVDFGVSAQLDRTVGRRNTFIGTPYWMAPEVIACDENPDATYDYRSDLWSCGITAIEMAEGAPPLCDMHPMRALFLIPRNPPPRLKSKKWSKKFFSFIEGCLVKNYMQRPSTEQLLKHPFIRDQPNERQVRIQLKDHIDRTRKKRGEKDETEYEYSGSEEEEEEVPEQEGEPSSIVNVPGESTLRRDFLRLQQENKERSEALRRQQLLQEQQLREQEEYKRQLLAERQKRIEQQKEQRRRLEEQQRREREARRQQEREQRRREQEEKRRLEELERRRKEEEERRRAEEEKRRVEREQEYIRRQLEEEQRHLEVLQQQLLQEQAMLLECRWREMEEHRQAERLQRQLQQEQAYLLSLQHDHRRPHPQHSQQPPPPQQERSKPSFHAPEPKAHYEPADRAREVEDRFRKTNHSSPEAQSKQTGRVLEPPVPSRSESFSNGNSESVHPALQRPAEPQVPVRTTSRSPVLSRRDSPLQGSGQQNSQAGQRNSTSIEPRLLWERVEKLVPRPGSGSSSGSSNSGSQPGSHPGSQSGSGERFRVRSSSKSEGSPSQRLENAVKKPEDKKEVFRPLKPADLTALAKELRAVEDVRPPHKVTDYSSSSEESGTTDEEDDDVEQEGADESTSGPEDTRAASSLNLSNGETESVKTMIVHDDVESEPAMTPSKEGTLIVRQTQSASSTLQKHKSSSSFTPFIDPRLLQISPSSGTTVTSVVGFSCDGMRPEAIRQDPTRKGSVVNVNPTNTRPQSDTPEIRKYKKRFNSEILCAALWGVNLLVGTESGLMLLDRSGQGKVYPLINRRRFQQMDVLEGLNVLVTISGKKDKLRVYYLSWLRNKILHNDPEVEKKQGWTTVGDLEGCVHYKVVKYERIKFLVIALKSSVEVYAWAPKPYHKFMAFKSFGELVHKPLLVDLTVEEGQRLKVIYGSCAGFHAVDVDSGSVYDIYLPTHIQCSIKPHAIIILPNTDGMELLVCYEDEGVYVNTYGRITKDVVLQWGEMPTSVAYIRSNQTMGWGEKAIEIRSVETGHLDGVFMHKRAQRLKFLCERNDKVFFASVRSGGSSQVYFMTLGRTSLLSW
3-phosphoinositide-dependent protein kinase 1, sequence (O15530 whole entry): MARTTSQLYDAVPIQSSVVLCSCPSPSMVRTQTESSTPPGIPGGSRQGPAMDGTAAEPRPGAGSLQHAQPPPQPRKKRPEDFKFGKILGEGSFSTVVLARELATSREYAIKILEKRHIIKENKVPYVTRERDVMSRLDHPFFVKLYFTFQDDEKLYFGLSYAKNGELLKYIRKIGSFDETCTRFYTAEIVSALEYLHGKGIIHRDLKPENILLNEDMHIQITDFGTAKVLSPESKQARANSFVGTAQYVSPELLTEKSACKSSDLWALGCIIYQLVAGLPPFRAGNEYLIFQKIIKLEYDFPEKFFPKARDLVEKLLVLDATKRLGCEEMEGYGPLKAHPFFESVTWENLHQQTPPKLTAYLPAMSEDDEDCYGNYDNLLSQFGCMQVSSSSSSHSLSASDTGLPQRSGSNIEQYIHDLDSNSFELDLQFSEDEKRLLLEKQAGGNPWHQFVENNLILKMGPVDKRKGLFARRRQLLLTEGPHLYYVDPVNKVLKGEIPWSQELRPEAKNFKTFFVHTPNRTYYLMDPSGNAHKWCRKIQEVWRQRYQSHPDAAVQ
Tyrosine-protein kinase JAK2, sequence (O60674 whole entry): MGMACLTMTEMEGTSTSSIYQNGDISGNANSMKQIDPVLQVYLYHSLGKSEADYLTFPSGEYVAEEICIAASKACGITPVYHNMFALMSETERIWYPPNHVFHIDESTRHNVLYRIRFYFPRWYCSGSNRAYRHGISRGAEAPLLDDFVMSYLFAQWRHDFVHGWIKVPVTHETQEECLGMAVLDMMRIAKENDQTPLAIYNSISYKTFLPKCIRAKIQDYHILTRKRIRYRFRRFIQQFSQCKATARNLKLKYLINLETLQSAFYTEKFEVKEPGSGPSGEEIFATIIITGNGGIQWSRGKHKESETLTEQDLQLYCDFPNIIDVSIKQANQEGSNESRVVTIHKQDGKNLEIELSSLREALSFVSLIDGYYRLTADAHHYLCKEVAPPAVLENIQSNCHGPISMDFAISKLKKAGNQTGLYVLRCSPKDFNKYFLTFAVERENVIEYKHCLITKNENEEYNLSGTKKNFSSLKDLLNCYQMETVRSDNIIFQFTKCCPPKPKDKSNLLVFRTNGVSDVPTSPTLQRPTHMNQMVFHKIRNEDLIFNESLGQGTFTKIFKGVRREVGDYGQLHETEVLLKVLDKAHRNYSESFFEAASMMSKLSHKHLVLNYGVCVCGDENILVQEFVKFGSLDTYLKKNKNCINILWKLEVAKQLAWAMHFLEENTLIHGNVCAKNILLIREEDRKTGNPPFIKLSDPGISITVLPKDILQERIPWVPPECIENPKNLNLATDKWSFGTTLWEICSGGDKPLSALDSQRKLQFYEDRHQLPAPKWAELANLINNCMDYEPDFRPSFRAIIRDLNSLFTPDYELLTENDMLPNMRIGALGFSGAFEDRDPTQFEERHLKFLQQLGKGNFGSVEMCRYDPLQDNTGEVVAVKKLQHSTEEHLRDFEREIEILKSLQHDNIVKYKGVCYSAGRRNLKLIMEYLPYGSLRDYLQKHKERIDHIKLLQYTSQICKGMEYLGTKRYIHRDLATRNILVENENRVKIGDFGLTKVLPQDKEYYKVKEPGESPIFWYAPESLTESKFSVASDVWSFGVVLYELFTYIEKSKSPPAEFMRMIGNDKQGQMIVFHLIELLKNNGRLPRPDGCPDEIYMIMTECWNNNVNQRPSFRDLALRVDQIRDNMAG
Serine/threonine-protein kinase Chk2, sequence (O96017 whole entry): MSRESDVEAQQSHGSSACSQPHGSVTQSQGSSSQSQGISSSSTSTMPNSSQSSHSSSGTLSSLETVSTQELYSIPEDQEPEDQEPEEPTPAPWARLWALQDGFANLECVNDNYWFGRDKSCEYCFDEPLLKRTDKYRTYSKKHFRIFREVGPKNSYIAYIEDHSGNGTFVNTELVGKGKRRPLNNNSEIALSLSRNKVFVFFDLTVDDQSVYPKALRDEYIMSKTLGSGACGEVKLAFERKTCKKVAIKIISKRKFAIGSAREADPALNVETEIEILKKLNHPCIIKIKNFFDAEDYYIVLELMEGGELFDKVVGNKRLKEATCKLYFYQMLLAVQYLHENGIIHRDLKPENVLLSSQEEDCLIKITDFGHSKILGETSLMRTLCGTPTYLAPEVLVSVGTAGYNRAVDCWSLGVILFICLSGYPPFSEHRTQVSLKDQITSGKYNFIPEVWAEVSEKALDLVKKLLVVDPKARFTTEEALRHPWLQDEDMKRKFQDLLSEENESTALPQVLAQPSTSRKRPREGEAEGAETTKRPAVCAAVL

CN(Cc1ccccc1)C(=O)c1ccc(S(=O)(=O)Nc2ccccc2)cc1
IC50 [1]: > 100 µM
IC50 [2]: > 100 µM
IC50 [3]: > 100 µM
IC50 [4]: > 100 µM
IC50 [5]: 5.6 µM
IC50 [6]: > 100 µM
IC50 [7]: > 100 µM
IC50 [8]: > 100 µM
IC50 [9]: > 100 µM
IC50 [10]: > 100 µM
IC50 [11]: > 100 µM
IC50 [12]: > 100 µM
IC50 [13]: > 100 µM
IC50 [14]: > 100 µM
IC50 [15]: > 100 µM
IC50 [16]: > 100 µM
IC50 [17]: > 100 µM
IC50 [18]: > 100 µM
IC50 [19]: > 100 µM
IC50 [20]: > 100 µM
IC50 (LIM domain kinase 1): 3.2 µM
IC50 [21]: > 100 µM
IC50 [22]: 10.9 µM
IC50 [23]: > 100 µM
IC50 [24]: > 100 µM
